In brackets after ≈: the same amount, converted by molar mass.
Test: Solubility of glimepiride, pH-dependent
Assay type: physicochemical
Conditions: for solubility: phosphate buffer, thermodynamic from solid
Procedure: Glimepiride has very low and pH-dependent solubility. […] In media with pH around 7 the solubility of glimepiride is 0.001 mg/mL. At a pH 8, the solubility of glimepiride only slightly increases to 0.03 mg/mL. […] Being insoluble according to the present invention means that the solubility in water is lower than 10 mg/mL. […] Solubility as meant herein is measured using USP apparatus 2 with agitation at 75 RPM. The dissolution medium is phosphate buffer maintained at 37° C. Dissolution as meant herein is measured using HPLC.

solubility (37 °C, pH 8, aqueous buffer): 30 µg/mL (≈ 61.1 µM)
solubility (aqueous buffer, acidic medium, 37° C.): < 1 µg/mL
solubility in water (in words) (water, insoluble means lower than 10 mg/mL): insoluble in water
SMILES: CCC1=C(C)CN(C(=O)NCCc2ccc(S(=O)(=O)NC(=O)N[C@H]3CC[C@H](C)CC3)cc2)C1=O [glimepiride, Glimepiride]
